In patent publication US8546401B2, “5,6-disubstituted oxindole-derivatives and use thereof for treating vasopressin-dependent diseases” (AbbVie Deutschland GmbH & Co. KG, priority 2007, dated 2013):

What was measured:
[1] = target: T1, human oxytocin receptors (Homo sapiens, UniProt P30559); experiment: Oxytocin receptor binding assay; settings: selectivity quotient
T1 construct: expressed in transfected cells; host or cells: HEK-293, transient expression; lysed and homogenized cells
T1 sequence (P30559 1-389): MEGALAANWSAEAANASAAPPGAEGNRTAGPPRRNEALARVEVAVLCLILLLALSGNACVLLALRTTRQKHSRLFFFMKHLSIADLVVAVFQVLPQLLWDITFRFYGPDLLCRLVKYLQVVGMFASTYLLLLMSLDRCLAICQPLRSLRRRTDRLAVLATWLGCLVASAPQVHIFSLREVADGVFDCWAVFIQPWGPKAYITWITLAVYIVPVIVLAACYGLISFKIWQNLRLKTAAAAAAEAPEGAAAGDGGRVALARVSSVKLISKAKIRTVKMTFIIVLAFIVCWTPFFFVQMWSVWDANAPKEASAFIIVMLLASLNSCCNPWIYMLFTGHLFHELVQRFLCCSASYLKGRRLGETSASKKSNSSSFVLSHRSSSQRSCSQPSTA
Procedure: 4. Oxytocin Receptor Binding Assay
The substances were dissolved in a concentration of 10^−2 M in DMSO and diluted with incubation buffer (50 mM Tris, 10 mM MgCl2, 0.1% BSA, pH 7.4).
Confluent HEK-293 cells with transiently expressing recombinant human oxytocin receptors were centrifuged at 750×g at room temperature for 5 minutes. The residue was taken up in ice-cold lysis buffer (50 mM Tris-HCl, 10% glycerol, pH 7.4 and Roche complete protease inhibitor) and subjected to an osmotic shock at 4° C. for 20 minutes. The lyzed cells were then centrifuged at 750×g at 4° C. for 20 minutes, the residue was taken up in incubation buffer, and aliquots of 10^7 cells/ml were prepared. The aliquots were frozen at −80° C. until used.
On the day of the experiment, the cells were thawed, diluted with incubation buffer and homogenized using a Multipette Combitip (Eppendorf, Hamburg). The reaction mixture of 0.250 ml was composed of 2 to 5×10^4 recombinant cells, 3-4 nM ^3H-oxytocin (PerkinElmer, NET 858) in the presence of test substance (inhibition plot) or only incubation buffer (total binding). The nonspecific binding was determined with 10^−6 M oxytocin (Bachem AG, H2510). Triplicate determinations were set up. Bound and free radioligand were separated by filtration under vacuum with Whatman GF/B glass fiber filters with the aid of a Skatron cell harvester 7000. The bound radioactivity was determined by liquid scintillation measurement in a Tricarb Beta counter, model 2000 or 2200CA (Packard).
The binding parameters were calculated by nonlinear regression analysis (SAS) in analogy to the LIGAND program of Munson and Rodbard (Analytical Biochem 1980; 107: 220-239). The Kd of ^3H-oxytocin for the recombinant hOT receptors is 7.6 nM and was used to determine the Ki.

[2] = target: T2, human vasopressin V1a receptor (Homo sapiens, UniProt P37288); experiment: Vasopressin V1a receptor binding assay; settings: selectivity quotient, human receptors
T2 construct: expressed in transfected cells; host or cells: CHO-K1 (cell line hV1a_5_CHO), membrane preparation
Procedure: 2. Vasopressin V1a Receptor Binding Assay:
The test substances were dissolved in a concentration of 10^−2 M in DMSO. Further dilution of these DMSO solutions took place in incubation buffer (50 mM Tris, 10 mM MgCl2, 0.1% BSA, pH 7.4).
CHO-K1 cells with stably expressed human vasopressin V1a receptor (clone 5) were harvested and homogenized in 50 mM Tris-HCl and in the presence of protease inhibitors (Roche complete Mini #1836170) using a Polytron homogenizer at intermediate setting for 2×10 seconds, and subsequently centrifuged at 40 000×g for 1 h. The membrane pellet was again homogenized and centrifuged as described and subsequently taken up in 50 mM Tris-HCl, pH 7.4, homogenized and stored in aliquots frozen in liquid nitrogen at −190° C.
(§1) The binding assay was carried out by the method based on that of Tahara et al. (Tahara A et al., Brit. J. Pharmacol. 125, 1463-1470 (1998)).
(§2) The incubation buffer was: 50 mM Tris, 10 mM MgCl2, 0.1% BSA, pH 7.4.
In the assay mixture (250 μl), membranes (20 μg/ml protein in incubation buffer) from CHO-K1 cells with stably expressed human V1a receptors (cell line hV1a—5_CHO) were incubated with 0.04 nM ^125I-AVP (8-Arg-vasopressin, NEX 128) in incubation buffer (50 mM Tris, 10 mM MgCl2, 0.1% BSA, pH 7.4) (total binding) or additionally with increasing concentrations of test substance (displacement experiment). The nonspecific binding was determined with 1 μM AVP (Bachem #H1780). Triplicate determinations were carried out.
After incubation (60 minutes at room temperature), the free radioligand was filtered off by vacuum filtration (Skatron cell harvester 7000) through Wathman GF/B glass fiber filter mats, and the filters were transferred into scintillation vials.
The liquid scintillation measurement took place in a model 2000 or 2200CA Tricarb instrument (Packard). Conversion of the measured cpm into dpm was carried out with the aid of a standard quench series.
The binding parameters were calculated by nonlinear regression in SAS. The algorithms of the program operate in analogy to the LIGAND analysis program (Munson P J and Rodbard D, Analytical Biochem. 107, 220-239 (1980)). The Kd of ^125I-AVP for the recombinant hV1a receptors was determined in saturation experiments. A Kd of 1.33 nM was used to determine the Ki.

[3] = target: T3, human vasopressin V1b receptor (Homo sapiens, UniProt P47901); experiment: Vasopressin V1b receptor binding assay; settings: CHO-K1 membranes, 3H-AVP displacement
T3 construct: expressed in transfected cells; host or cells: CHO-K1 (cell line hV1b_3H2_CHO), membrane preparation
T3 sequence (P47901 1-424): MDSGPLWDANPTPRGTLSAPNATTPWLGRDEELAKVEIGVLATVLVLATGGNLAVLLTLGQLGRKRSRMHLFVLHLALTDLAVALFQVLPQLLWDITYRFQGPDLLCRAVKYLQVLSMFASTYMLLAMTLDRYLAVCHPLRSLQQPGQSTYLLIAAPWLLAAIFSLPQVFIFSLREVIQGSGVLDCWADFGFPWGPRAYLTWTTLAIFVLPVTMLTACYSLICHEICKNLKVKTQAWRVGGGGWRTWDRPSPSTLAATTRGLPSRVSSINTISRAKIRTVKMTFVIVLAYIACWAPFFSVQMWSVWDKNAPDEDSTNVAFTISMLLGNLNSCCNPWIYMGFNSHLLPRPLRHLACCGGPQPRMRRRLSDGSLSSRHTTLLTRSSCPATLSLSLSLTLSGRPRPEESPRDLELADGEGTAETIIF
Procedure: 1. Vasopressin V1b Receptor Binding Assay:
The test substances were dissolved in a concentration of 10^−2 M in DMSO and further diluted to 5×10^−4 M to 5×10^−3 M. These serial DMSO predilutions were diluted 1:10 with assay buffer. The substance concentration was further diluted 1:5 in the assay mixture (2% DMSO in the mixture).
CHO-K1 cells with stably expressed human vasopressin V1b receptor (clone 3H2) were harvested and homogenized in 50 mM Tris-HCl and in the presence of protease inhibitors (Roche complete Mini #1836170) using a Polytron homogenizer at intermediate setting for 2×10 seconds, and subsequently centrifuged at 40 000×g for 1 h. The membrane pellet was again homogenized and centrifuged as described and subsequently taken up in 50 mM Tris-HCl, pH 7.4, homogenized and stored in aliquots frozen in liquid nitrogen at −190° C.
as §1, §2
In the assay mixture (250 μl), membranes (50 μg/ml protein in incubation buffer) from CHO-K1 cells with stably expressed human V1b receptors (cell line hV1b—3H2_CHO) were incubated with 1.5 nM ^3H-AVP (8-Arg-vasopressin, PerkinElmer #18479) in incubation buffer (50 mM Tris, 10 mM MgCl2, 0.1% BSA, pH 7.4) (total binding) or additionally with increasing concentrations of test substance (displacement experiment). The nonspecific binding was determined with […] (Bachem #H1780). All determinations were carried out as triplicate determinations. After incubation (60 minutes at room temperature), the free radioligand was filtered off by vacuum filtration (Skatron cell harvester 7000) through Wathman GF/B glass fiber filter mats, and the filters were transferred into scintillation vials. The liquid scintillation measurement took place in a model 2000 or 2200CA Tricarb instrument (Packard). Conversion of the measured cpm into dpm was carried out with the aid of a standard quench series.
The binding parameters were calculated by nonlinear regression in SAS. The algorithms of the program operate in analogy to the LIGAND analysis program (Munson P J and Rodbard D, Analytical Biochem. 107, 220-239 (1980)). The Kd of ^3H-AVP for the recombinant human V1b receptors is 0.4 nM and was used to determine the Ki.

T2 sequence (P37288 whole entry): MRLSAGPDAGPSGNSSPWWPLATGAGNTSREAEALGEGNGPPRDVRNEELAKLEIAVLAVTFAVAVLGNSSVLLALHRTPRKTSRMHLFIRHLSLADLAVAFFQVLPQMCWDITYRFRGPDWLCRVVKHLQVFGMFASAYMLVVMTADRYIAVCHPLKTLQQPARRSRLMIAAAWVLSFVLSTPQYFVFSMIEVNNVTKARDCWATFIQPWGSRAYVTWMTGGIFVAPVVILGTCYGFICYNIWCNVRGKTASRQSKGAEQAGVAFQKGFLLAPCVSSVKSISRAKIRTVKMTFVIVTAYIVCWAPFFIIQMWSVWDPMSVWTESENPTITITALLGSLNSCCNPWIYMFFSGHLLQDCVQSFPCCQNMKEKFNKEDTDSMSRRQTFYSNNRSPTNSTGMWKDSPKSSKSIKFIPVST

SMILES | Ki(h − OT)/Ki(h − V1b)* [1] | Ki(h − V1a)/Ki(h − V1b)* [2] | Ki [3] [nM]
CCOc1ncccc1C1(NC(=O)N2CCN(C3CCN(C)CC3)CC2)C(=O)N(S(=O)(=O)c2ccc(OC)cc2OC)c2cc(F)c(C#N)cc21 (stereo not drawn) [Example 1, 4-(1-Methylpiperidin-4-yl)piperazin-1-[5-cyano-1-(2,4-dimethoxyphenylsulfonyl)-3-(2-ethoxypyridin-3-yl)-6-fluoro-2-oxo-2,3-dihydro-1H-indol-3-yl]carboxamide] | +++ (>75) | +++ (>75) | < 1
CCOc1ncccc1C1(NC(=O)N2CCN(C3CCN(CC)CC3)CC2)C(=O)N(S(=O)(=O)c2ccc(OC)cc2OC)c2cc(F)c(C#N)cc21 (stereo not drawn) [Example 2, 4-(1-Ethylpiperidin-4-yl)piperazine-1-[5-cyano-1-(2,4-dimethoxyphenylsulfonyl)-3-(2-ethoxypyridin-3-yl)-6-fluoro-2-oxo-2,3-dihydro-1H-indol-3-yl]carboxamide] | +++ (>75) | +++ (>75) | < 1
CCOc1ncccc1C1(NC(=O)N2CCC(N3CCN(C)CC3)CC2)C(=O)N(S(=O)(=O)c2ccc(OC)cc2OC)c2cc(F)c(C#N)cc21 (stereo not drawn) [Example 3, 4-(4-Methylpiperazin-1-yl)piperidine-1-[5-cyano-1-(2,4-dimethoxyphenylsulfonyl)-3-(2-ethoxypyridin-3-yl)-6-fluoro-2-oxo-2,3-dihydro-1H-indol-3-yl]carboxamide] | +++ (>75) | ++ (25-75) | < 1
CCOc1ncccc1C1(NC(=O)N2CCC(N3CCN(CC)CC3)CC2)C(=O)N(S(=O)(=O)c2ccc(OC)cc2OC)c2cc(F)c(C#N)cc21 (stereo not drawn) [Example 4, 4-(4-Ethylpiperazin-1-yl)piperidine-1-[5-cyano-1-(2,4-dimethoxyphenylsulfonyl)-3-(2-ethoxypyridin-3-yl)-6-fluoro-2-oxo-2,3-dihydro-1H-indol-3-yl]carboxamide] | +++ (>75) | ++ (25-75) | < 1
CCOc1ncccc1C1(NC(=O)N2CCN(C3CCN(C)CC3)CC2)C(=O)N(S(=O)(=O)c2ccc(OC)cc2)c2cc(F)c(C#N)cc21 (stereo not drawn) [Example 5, 4-(1-Methylpiperidin-4-yl)piperazine-1-[5-cyano-3-(2-ethoxypyridin-3-yl)-6-fluoro-1-(4-methoxyphenylsulfonyl)-2-oxo-2,3-dihydro-1H-indol-3-yl]carboxamide] | +++ (>75) | +++ (>75) | 1 to 10
CCOc1ncccc1C1(NC(=O)N2CCN(C3CCN(CC)CC3)CC2)C(=O)N(S(=O)(=O)c2ccc(OC)cc2)c2cc(F)c(C#N)cc21 (stereo not drawn) [Example 6, 4-(1-Ethylpiperidin-4-yl)piperazine-1-[5-cyano-3-(2-ethoxypyridin-3-yl)-6-fluoro-1-(4-methoxyphenylsulfonyl)-2-oxo-2,3-dihydro-1H-indol-3-yl]carboxamide] | +++ (>75) | +++ (>75) | 1 to 10
CCOc1ncccc1C1(NC(=O)N2CCC(N3CCN(C)CC3)CC2)C(=O)N(S(=O)(=O)c2ccc(OC)cc2)c2cc(F)c(C#N)cc21 (stereo not drawn) [Example 7, 4-(4-Methylpiperazin-1-yl)piperidine-1-[5-cyano-3-(2-ethoxypyridin-3-yl)-6-fluoro-1-(4-methoxyphenylsulfonyl)-2-oxo-2,3-dihydro-1H-indol-3-yl]carboxamide] | +++ (>75) | + (10-<25) | 1 to 10
